In patent publication EP0192609A2, “Acylated hexose derivatives and method for their preparation” (CIBA-GEIGY AG, priority 1985, dated 1986):

Tested on: Influenza-Viren
Test: own studies in mice infected with influenza viruses (prophylaxis and therapy of virus infection, compound alone without vaccine)
Type: in vivo, Mäuse
Conditions: per se, i.e. without added vaccine
Source text: Aus der Französischen Patentanmeldung Nr. 74 22 909 mit der Publikationsnummer 2 292 486 sind Muramylpeptide vom Typ der Verbindung N-Acetyl-muramyl-L-alanyl-D-isoglutamin ("MDP") bekannt. Diese Verbindungen sind als immunologische Adjuvanzien beschrieben, d.h. sie können in Mischung mit Impfstoffen dazu benützt werden, den Impferfolg zu verbessern. Eigene Untersuchungen, z.B. bei mit Influenza-Viren infizierten Mäusen, haben ergeben, dass N-Acetyl-muramyl-L-alanyl-D-isoglutamin per se, d.h. ohne Beimengung von Impfstoffen, bei der Prophylaxe und Therapie von Virusinfektionen unwirksam ist. Auch ist die Verwendbarkeit strukturell einfacher Muramylpeptide und ihrer Analogen gegen Virusinfektionen bisher nicht beschrieben.

## CC(=O)N[C@H]1C(O)O[C@H](CO)[C@@H](O)[C@@H]1O[C@H](C)C(=O)N[C@@H](C)C(=O)N[C@H](CCC(=O)O)C(N)=O (stereo partly drawn) [N-Acetyl-muramyl-L-alanyl-D-isoglutamin]
  Wirksamkeit bei der Prophylaxe und Therapie von Virusinfektionen: unwirksam
